# System: RapM methylase
# Assay: In vitro methylation of desmethyl-rapamycin substrates by recombinant RapM methylase crude extract, HPLC analysis
# Assay type: biochemical, Streptomyces hygroscopicus
# Conditions: recombinant E. coli cell extract, SAM as methyl donor, phosphate buffer pH 7.5, HPLC chromatograms
# Method: The RapI, RapM and RapQ proteins were then expressed in E. coli strain BL21(DE3) cells using the Novagen pET24 inducible plasmid expression vector. In this vector, cloned genes are expressed from a T7 promoter by T7 RNA polymerase, and expression is activated by IPTG addition.
# For crude extracts of the cloned methylase proteins, 25 mL cultures of induced cells were collected by centrifugation and the pellets frozen. The pellets were resuspended in 10 mL 50 mM potassium phosphate buffer, pH 7.5, containing 1 mM β-mercaptoethanol. Thereafter, lysozyme was added to a final concentration of 100 μg/ml and Benzonase™ nuclease was added (1 μL/mL cells). Cells were sonicated for 1 to 2 min on ice and cell debris was removed by centrifugation at ˜30,000×g, 4° C. for 15 min. Supernatants were adjusted to ˜10% glycerol prior to freezing at −70° C.
# Approximately 65 μL of crude methylase extract was added to a reaction containing 3 μL of 1 mg/mL 7-desmethyl- rapamycin (7-dmr) solution, 5 μL of 4 mM SAM, 4 μL of 0.1 M MgSO4, and 23 μL of a 0.5 M phosphate buffer, adjusted to pH 7.5. Methylation reactions using the recombinant cell extracts were carried out as described above, except that 50 μL of extract and 38 μL of buffer were used.
molecule,measurement,value
32-O-desmethyl-rapamycin [32-dmr],Conversion of the desmethyl-rapamycin substrate to rapamycin by RapM methylase (substrate specificity),did not modify
"CO[C@@H]1C[C@H](C[C@@H](C)[C@@H]2CC(=O)[C@H](C)/C=C(\C)[C@@H](O)[C@@H](OC)C(=O)[C@H](C)C[C@H](C)\C=C/C=C/C=C(\C)[C@@H](O)C[C@@H]3CC[C@@H](C)[C@@](O)(O3)C(=O)C(=O)N3CCCC[C@H]3C(=O)O2)CC[C@H]1O [7-dmr, 7-O-desmethyl-rapamycin]",Conversion of the desmethyl-rapamycin substrate to rapamycin by RapM methylase (substrate specificity),generated rapamycin

# From patent publication US20080014614A1, “Labeling of rapamycin using rapamycin-specific methylases” (Wyeth, priority 2004, published 2008)
